From patent publication US8907107B2 (Hae Therapeutics Limited, priority 2009, dated 2014) come the findings set out here.

The term pKa denotes the pH at which an ionisable group is half protonated. Low readings indicate a stronger acid or weaker base, high ones a weaker acid or stronger base.

Each structure is given as a SMILES string. Marks after values point to notes of the source that are not given here.

Series [1] can be described thus: UV-visible absorption spectra. Format: physicochemical. Particulars: for λabs: longest-wavelength band, from compound data.
Series [2] in a line: Fluorescence emission spectra and quantum yield. Format: physicochemical. Conditions: for λmax emiss.: 5 × 10^−7 M, excitation 640 nm, slit widths 5 nm.
A further series relates to E. coli cells. Put plainly: Bacterial cell uptake of 21, confocal imaging. The class given is cell-based, Escherichia coli. Particulars: gram-negative; 4 μM, 10 minutes. The protocol: (§1) MDA-MB-231 cells were seeded into a 8 well chambered microscopy slide and they were grown overnight in DMEM media at 37° C. in the presence of 5% CO2. The media was then removed and 16 and 17 (5 μM) was added, followed by an incubation period of 1 hour in the dark. Cells were then washed with PBS to remove excess compound. Prior to visualization, cells were fixed in 3.7% formaldehyde solution, co-stained with DAPI and a coverslip was mounted onto the microscopy slide. In a similar way, E. coli cells were incubated with 21 (4 μM) in the dark for 10 minutes. The bacterial cells were washed with PBS and An aliquot of this solution was suspended onto a microscopy slide and allowed to dry. Before imaging, a coverslip was mounted onto the microscopy slide. Images were obtained using an LSM510 META confocal laser scanning microscope equipped with 63× numerical aperture 1.4 objective. DAPI was excited at 364 nm and detected with a band-pass filter 385-470 nm, whilst 16, 17 and 21 were excited at 633 nm and their fluorescence was detected through a 650 nm long-pass filter.
(§2) It was envisaged that the bis-cationic nature of sensitizer 21 would be optimal for uptake into prokaryotic cells thereby broadening their utility. […] Confocal imaging confirmed the binding of 21 to both gram-positive and negative bacterial cells (FIGS. 28a, 28b).

The next series relates to S. aureus cells. Put plainly: Bacterial cell uptake of 21, confocal imaging. Format: cell-based, Staphylococcus aureus. Conditions: gram-positive; 4 μM, 10 minutes. The protocol: as §1, §2
Series [3] has as its system MDA-MB-231 cells. Put plainly: Cellular uptake of 16 and 17, CLSM imaging. Conditions: 5 μM; for cellular uptake: 1 hour incubation, DMEM; for subcellular localisation: 1 hour, 3-D reconstruction, DAPI co-staining. Format: cell-based. As to the method: These spectroscopic properties correlate perfectly to the optical requirements of commercially available confocal laser scanning microscopy (CLSM) instruments and small animal optical imaging instruments. Cellular uptake of DMEM solutions of 16 and 17 were utilised to illustrate their potential for in vitro imaging. Compounds 16 and 17 were incubated with MDA-MB-231 cells for 1 hour at 5 μM concentration and the excess dye was removed by washing with PBS before visualisation.
as §1

A short description of a further series: physchem. The text has this:
A trace pH=6.0, B trace pH=9.0. Excitation at 640 nm, slit widths 10 nm, 5×10^−7 M in water/CrEL.
FIG. 6. […] Excitation at 640 nm, slit widths 20 nm, 5×10^−7 M in water/CrEL. INaCl=150 mmol/L.

Series [4] relates to MDA-MB-231 cells. Put plainly: Confocal imaging of cell internalization and intracellular on/off switching of 8a. Format: cell-based. An excerpt:
The difference in averaged whole cell red fluorescence taken from off-cells to on-cells was six-fold (FIG. 7).

Setting [5] is: 730 nm, excitation 640 nm, 5×10^−7 M in water/CrEL.

As to `CC[N+](C)(CC)Cc1ccc(C2=CC(c3ccc(OC)cc3)=[N+]3C2=Nc2c(-c4ccc(C[N+](C)(CC)CC)cc4)cc(-c4ccc(OC)cc4)n2[B-]3(F)F)cc1.[I-].[I-]` [Compound 21], the λmax abs. in series [1] (CHCl3, 1 × 10^−6 M) was found to be 702 nm; in series [1] (DMEM, 1 × 10^−6 M) it was 709 nm; in series [1] (MeOH, 1 × 10^−6 M), 702 nm; in series [1] (PBS/BSA, 1 × 10^−6 M), 706 nm. The compound also displayed a Φf in series [2] (CHCl3) of 0.22. Moreover, the λmax emiss. in series [2] (CHCl3) is 735 nm; in series [2] (DMEM), 737 nm; in series [2] (MeOH), 732 nm; in series [2] (PBS/BSA (4×10^−4 M BSA)) it was 730 nm. Moreover, the “cellular uptake / binding” value in the series on E. coli cells and in the series with S. aureus cells was “sufficient for cellular uptake” in each case.

On to `CC(C)(C)OC(=O)NCCn1cc(COc2ccc(C3=NC(=Nc4[nH]c(-c5ccc(O)cc5)cc4-c4ccccc4)C(c4ccccc4)=C3)cc2)nn1` [Compound 8c, {2-[4-(4-{5-[5-(4-Hydroxyphenyl)-3-phenyl-1H-pyrrol-2-ylimino]-4-phenyl-5H-pyrrol-2-yl}-phenoxymethyl)-[1,2,3]triazol-1-yl]ethyl}carbamic acid t-butyl ester], for which the λmax abs. in series [1] (CH3OH, 5 × 10^−6 M) worked out at 687 nm.

As to `O=S(=O)(O)CCCOc1ccc(C2=[N+]3C(=Nc4c(-c5ccccc5)cc(-c5ccc(OCCCS(=O)(=O)O)cc5)n4[B-]3(F)F)C(c3ccccc3)=C2)cc1` [Compound 17], the λmax abs. is 694 nm in series [1] (CHCl3, 1 × 10^−6 M); 694^e nm in series [1] (CHCl3, 1 × 10^−6 M, as tetra-butylammonium salt); 694 nm in series [1] (DMEM, 1 × 10^−6 M); 687 nm in series [1] (MeOH, 1 × 10^−6 M); 692 nm in series [1] (PBS/BSA, 1 × 10^−6 M). For the same compound, the Φf in series [2] (CHCl3) worked out at 0.31. Further, the λmax emiss. in series [2] (CHCl3) was determined as 726 nm; in series [2] (DMEM), 728 nm; in series [2] (PBS/BSA (4×10^−4 M BSA)), 718 nm. In the series with MDA-MB-231 cells [3], the cellular uptake entry is on record as “efficiently taken up by cells”. For the same compound, the subcellular localisation entry with MDA-MB-231 cells [3] is recorded as “primarily to the cytoplasm”.

Turning to `O=C(O)COc1ccc(C2=[N+]3C(=Nc4c(-c5ccccc5)cc(-c5ccc(OCC(=O)O)cc5)n4[B-]3(F)F)C(c3ccccc3)=C2)cc1` [Compound 16], the λmax abs. in series [1] (CHCl3, 1 × 10^−6 M) is given as 681 nm; in series [1] (DMEM, 1 × 10^−6 M), 694 nm; in series [1] (MeOH, 1 × 10^−6 M) it was 681 nm; in series [1] (PBS/BSA, 1 × 10^−6 M), 692 nm. In series [2] (CHCl3), this compound displayed a Φf of 0.30. Besides, the λmax emiss. in series [2] (DMEM) is on record as 722 nm; in series [2] (MeOH), 715 nm; in series [2] (PBS/BSA (4×10^−4 M BSA)), 718 nm. Moreover, the cellular uptake result with MDA-MB-231 cells [3] is “efficiently taken up by cells”. Further, the subcellular localisation entry in the series with MDA-MB-231 cells [3] is “primarily to the cytoplasm”.

Consider `COCCOCCOCCOc1ccc(-c2cc(-c3ccccc3)c3n2[B-](F)(F)[N+]2=C(c4ccc(OCCNC(=O)OC(C)(C)C)cc4)C=C(c4ccccc4)C2=N3)cc1` [Compound 9], for which the “ε×10^−3” value in series [1] (CHCl3, at 689 nm) stood at 87.1. The λabs in series [1] (CHCl3) is 689 nm. Also, the “fluorescence quantum yield Φf” value in series [2] (CHCl3, 1 as standard) is reported as 0.36. In addition, in series [2] (CHCl3, from compound data), the λemiss was 717 nm. In addition, the Φf in series [2] (ethanol, 1 used as standard) stood at 0.23. Further, in series [2] (ethanol), the λmax emiss. was determined as 714 nm.

Turning to `CCN(CC)Cc1ccc(C2=CC(c3ccc(OC)cc3)=[N+]3C2=Nc2c(-c4ccc(CN(CC)CC)cc4)cc(-c4ccc(OC)cc4)n2[B-]3(F)F)cc1` [Compound 20], the ε in series [1] (CHCl3, at 691 nm) is 76,000 Lmol^−1 cm^−1. Further, the λabs in series [1] (CHCl3) amounted to 691 nm.

Take `OC[C@H]1O[C@@H](n2cc(COc3ccc(-c4cc(-c5ccccc5)c5n4[B-](F)(F)[N+]4=C(c6ccc(O)cc6)C=C(c6ccccc6)C4=N5)cc3)nn2)[C@H](O)[C@@H](O)[C@H]1O` [Compound 8a]: the λmax abs. in series [1] (CH3OH, 5 × 10^−6 M) amounted to 687 nm. The same compound came in with a pKa in “physchem” of 6.9. Moreover, in “physchem” (setting [5]), the “fluorescence intensity difference between pH 6.6 and 8” value turned out to be 6 fold; the “fluorescence intensity difference from pH 6.1 to 7.2” value is on record as “greater than 2 fold”. The “intracellular emission after addition of basic buffer” value in the series on MDA-MB-231 cells [4] (aqueous carbonate buffer pH 8.0) is reported as “almost complete quenching”. In addition, the “subcellular localisation of red emission” value with MDA-MB-231 cells [4] (incubation 1 h, DAPI co-staining) was “localised to the cytosol”. In addition, the “intracellular emission after addition of acidic buffer” value with MDA-MB-231 cells [4] (pH 6.6 buffer) is “re-established”. Moreover, the “difference in averaged whole cell red fluorescence from off-cells to on-cells” value in the series on MDA-MB-231 cells [4] (pH 8.0 versus pH 6.6 buffer) is on record as “six-fold”.

With `O=C(O)CCCn1cc(COc2ccc(C3=NC(=Nc4[nH]c(-c5ccc(O)cc5)cc4-c4ccccc4)C(c4ccccc4)=C3)cc2)nn1` [Compound 8b, 4-[4-(4-[5-[5-(4-Hydroxyphenyl)-3-phenyl-1H-pyrrol-2-ylimino]-4-phenyl-5H-pyrrol-2-yl]-phenoxymethyl)-[1,2,3]triazol-1-yl]butyric acid], the λmax abs. in series [1] (CH3OH, 5 × 10^−6 M) came to 687 nm.
